Reference: patent publication US4468511A, “C-20- And C-23-Modified macrolide derivatives” (Eli Lilly and Company, priority 1983, dated 1984)
≈ marks a conversion by molar mass, not a printed value. Read-outs that look alike come from different tables or passages of the source.

Tests used:
[1] = tested on: Escherichia coli EC14; test: MIC, standard agar-dilution assay; assay type: cell-based; conditions: agar-dilution; Escherichia coli EC14; read-out: MIC
Method: (§1) Certain of the derivatives are active against some gram-negative bacteria, such as Pasteurella species. The MIC's in Table II were determined by standard agar-dilution assays. The MIC's in Table III were obtained using a conventional broth-dilution microtiter test.

[2] = tested on: Escherichia coli TEM; test: MIC, standard agar-dilution assay; assay type: cell-based; conditions: agar-dilution; Escherichia coli TEM; read-out: MIC
How it was run: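 Minimum inhibitory concentrations against Escherichia coli were measured with a standard agar-dilution method. The result for each derivative is the lowest concentration that inhibits bacterial growth, given in ug/mL.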

[3] = tested on: Klebsiella pneumoniae KAE; test: MIC, standard agar-dilution assay; assay type: cell-based; conditions: agar-dilution; Klebsiella pneumoniae KAE; read-out: MIC
How it was run: (§2)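 The Klebsiella MIC was obtained by agar-dilution assay. Other organisms (Pasteurella hemolytica, Pasteurella multocida, Mycoplasma gallisepticum) were tested by conventional broth microdilution.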

[4] = tested on: Klebsiella pneumoniae X26; test: MIC, standard agar-dilution assay; assay type: cell-based; conditions: agar-dilution; Klebsiella pneumoniae X26; read-out: MIC
How it was run: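 MICs for the two Pasteurella strains and the Mycoplasma strain were read from a broth-dilution microtiter test. The Klebsiella strain was tested on agar instead.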

[5] = tested on: Staphylococcus aureus V41; test: MIC, standard agar-dilution assay; assay type: cell-based
Method: as §1

[6] = tested on: Staphylococcus aureus X1.1; test: MIC, standard agar-dilution assay; assay type: cell-based; conditions: Staphylococcus aureus, X1.1
How it was run: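 Minimum inhibitory concentration against Staphylococcus aureus strain X1.1 was measured with a standard agar-dilution method. The result is reported as the MIC in ug/mL, i.e. the lowest compound concentration in agar that prevents visible growth of this organism.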

[7] = tested on: Streptococcus Group D X66; test: MIC, standard agar-dilution assay; assay type: cell-based
Method: as §1

[8] = tested on: Streptococcus pneumoniae Park I; test: MIC, standard agar-dilution assay; assay type: cell-based
Method: as §1

[9] = tested on: Streptococcus pyogenes 9960; test: MIC, standard agar-dilution assay; assay type: cell-based; conditions: agar-dilution, Streptococcus 9960, read-out: MIC
Method: as §1

[10] = tested on: Streptococcus pyogenes C203; test: MIC, standard agar-dilution assay; assay type: cell-based
Method: as §1

[11] = tested on: Haemophilus influenzae 76; test: MIC, standard agar-dilution assay; assay type: cell-based; conditions: Haemophilus influenzae, 76
Method: (§3) The MIC's in Table II were determined by standard agar-dilution assays. The MIC's in Table III were obtained using a conventional broth-dilution microtiter test.

[12] = tested on: Haemophilus influenzae C.L.; test: MIC, standard agar-dilution assay; assay type: cell-based
Method: as §3

[13] = tested on: Staphylococcus aureus X400; test: MIC, standard agar-dilution assay; assay type: cell-based
Method: as §3

[14] = tested on: Staphylococcus epidermidis EPI2; test: MIC, standard agar-dilution assay; assay type: cell-based; conditions: agar-dilution; Staphylococcus epidermidis EPI2; read-out: MIC
Method: as §3

[15] = tested on: Staphylococcus aureus S13E; test: microbe, parasite or virus in culture; assay type: cell-based
Method: as §3

[16] = tested on: Staphylococcus epidermidis EPI1; test: microbe, parasite or virus in culture; assay type: cell-based; conditions: Staphylococcus epidermidis, EPI1
Method: as §3

[17] = tested on: Mycoplasma gallisepticum 34159; test: MIC, conventional broth-dilution microtiter test; assay type: cell-based; conditions: Mycoplasmoides gallisepticum; broth-dilution microtiter; Mycoplasma gallisepticum 34159, Resistant strain; read-out: MIC
How it was run: as §2

[18] = tested on: Mycoplasma gallisepticum 41313; test: MIC, conventional broth-dilution microtiter test; assay type: cell-based; conditions: Mycoplasmoides gallisepticum; broth-dilution microtiter; Mycoplasma gallisepticum 41313, Resistant strain; read-out: MIC
How it was run: as §2

[19] = tested on: Mycoplasma gallisepticum; test: MIC, conventional broth-dilution microtiter test; assay type: cell-based; conditions: Mycoplasmoides gallisepticum
How it was run: as §2

[20] = tested on: Mycoplasma hyorhinis; test: MIC, conventional broth-dilution microtiter test; assay type: cell-based; conditions: broth-dilution microtiter; Mycoplasma hyorhinis; read-out: MIC
How it was run: (§4)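 Minimum inhibitory concentrations are determined by conventional broth dilution in microtiter wells for Pasteurella and Mycoplasma isolates. For Klebsiella pneumoniae KAE, the standard agar-dilution assay is used.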

[21] = tested on: Mycoplasma synoviae; test: MIC, conventional broth-dilution microtiter test; assay type: cell-based; conditions: Mycoplasmopsis synoviae
How it was run: as §4

[22] = tested on: Pasteurella hemolytica 22C; test: MIC, conventional broth-dilution microtiter test; assay type: cell-based; conditions: broth-dilution microtiter; Pasteurella hemolytica 22C; read-out: MIC
How it was run: as §2

[23] = tested on: Pasteurella hemolytica 23C; test: MIC, conventional broth-dilution microtiter test; assay type: cell-based; conditions: broth-dilution microtiter; Pasteurella hemolytica 23C; read-out: MIC
How it was run: as §2

[24] = tested on: Pasteurella hemolytica 41D; test: MIC, conventional broth-dilution microtiter test; assay type: cell-based; conditions: broth-dilution microtiter; Pasteurella hemolytica 41D; read-out: MIC
How it was run: as §2

[25] = tested on: Pasteurella multocida 17E; test: MIC, conventional broth-dilution microtiter test; assay type: cell-based; conditions: broth-dilution microtiter; Pasteurella multocida 17E, Bovine isolate; read-out: MIC
How it was run: as §2

[26] = tested on: Pasteurella multocida 22A; test: MIC, conventional broth-dilution microtiter test; assay type: cell-based
How it was run: as §2

[27] = tested on: Pasteurella multocida 40G; test: MIC, conventional broth-dilution microtiter test; assay type: cell-based
How it was run: as §2

[28] = tested on: Pasteurella multocida 60A; test: MIC, conventional broth-dilution microtiter test; assay type: cell-based
How it was run: as §2

[29] = tested on: Pasteurella multocida 68C; test: MIC, conventional broth-dilution microtiter test; assay type: cell-based
How it was run: as §2

[30] = tested on: Staphylococcus aureus; test: MIC, conventional broth-dilution microtiter test; assay type: cell-based
Method: as §1

[31] = tested on: Streptococcus sp. 80; test: MIC, conventional broth-dilution microtiter test; assay type: cell-based
Method: as §1

[32] = tested on: Streptococcus pyogenes C203; test: Protection of mice experimentally infected with S. pyogenes C203; assay type: in vivo
Method: Some of the derivatives of this invention have shown in vivo antimicrobial activity against experimentally-induced infections in laboratory animals. When two doses of test compound were administered to mice experimentally infected with S. pyogenes C203, the activity observed was measured as an ED50 value [effective dose in mg/kg to protect 50% of the test animals: see Warren Wick, et al., J. Bacteriol. 81, 233-235 (1961)].

[33] = tested on: Pasteurella multocida; test: Pasteurella infection in one-day old chicks; assay type: in vivo; conditions: subcutaneous, 30 mg/kg × 2, 1 and 4 hours post-challenge
Method: Certain of the formula 1 compounds of this invention have also shown in vivo activity against infections induced by gram-negative bacteria. Table V summarizes the results of tests in which illustrative compounds were evaluated against a Pasteurella infection in one-day old chicks. The compounds were administered parenterally after challenge of the chicks with Pasteurella multocida (0.1 ml of a 10^-4 dilution of a twenty-hour tryptose broth culture of an avian P. multocida given subcutaneously). In these tests, unless indicated otherwise, all non-medicated infected chicks died within 24 hours of Pasteurella challenge. In the tests summarized in Table V, the compounds were administered by subcutaneous injection at a dosage of 30 mg/kg, 1 and 4 hours post-challenge of the chicks with P. multocida.

[34] = C203, sc, mice, subcutaneous, mg/kg × 2, doses given 1 and 4 hours postinfection, read-out: ED50 Subcutaneous

SMILES | MIC [1] [µg/mL] | MIC [2] [µg/mL] | MIC [3] [µg/mL] | MIC [4] [µg/mL] | MIC [6] [µg/mL] | MIC [7] [µg/mL] | MIC [9] [µg/mL] | MIC [11] [µg/mL] | MIC [14] [µg/mL] | MIC [15] [µg/mL] | MIC [16] [µg/mL] | MIC [17] [µg/mL] | MIC [18] [µg/mL] | MIC [20] [µg/mL] | MIC [22] [µg/mL] | MIC [23] [µg/mL] | MIC [24] [µg/mL] | MIC [25] [µg/mL] | MIC [30] [µg/mL] | ED50 ([32]; C203, po, read-out: ED50 Oral) [mg/kg] | further results
CCC1CC(C)C(=O)C=CC(C)=CC(CN2CCC(O)CC2)C(CC)OC(=O)CC(O)C(C)C1OC1OC(C)C(O)C(N(C)C)C1O (centres unmarked) [Compound 45, 23-(4-Hydroxypiperidino)-20,23-dideoxy-20-dihydro-OMT] | > 128 | > 128 | > 128 | 16 (≈ 24 µM) | 8 (≈ 12 µM) | 64 (≈ 96 µM) | 128 (≈ 192 µM) | 64 (≈ 96 µM) | 2 (≈ 3 µM) | 8 (≈ 12 µM) | 8 (≈ 12 µM) | > 50 | 50 (≈ 75 µM) | > 50 | 25 (≈ 37.5 µM) | 25 (≈ 37.5 µM) | 25 (≈ 37.5 µM) | 25 (≈ 37.5 µM) | 12.5 (≈ 18.7 µM) | > 100 | MIC ([5]; agar-dilution, Staphylococcus aureus V41, Penicillin-resistant strain, read-out: MIC): 16 µg/mL (≈ 24 µM); MIC ([8]; agar-dilution, Streptococcus pneumoniae Park I, read-out: MIC): 2 µg/mL (≈ 3 µM); MIC ([10]; agar-dilution, Streptococcus pyogenes C203, read-out: MIC): 32 µg/mL (≈ 48 µM); MIC ([12]; agar-dilution, Haemophilus influenzae C.L., Ampicillin-sensitive strain, read-out: MIC): 32 µg/mL (≈ 48 µM); MIC ([13]; agar-dilution, Staphylococcus aureus X400, Methicillin-resistant strain, read-out: MIC): 32 µg/mL (≈ 48 µM); MIC ([19]; broth-dilution microtiter, Mycoplasma gallisepticum, read-out: MIC): 6.25 µg/mL (≈ 9.37 µM); MIC [21]: 12.5 µg/mL (≈ 18.7 µM); MIC ([26]; Pasteurella multocida, 22A): 12.5 µg/mL (≈ 18.7 µM); MIC ([27]; Pasteurella multocida, 40G): 12.5 µg/mL (≈ 18.7 µM); MIC ([28]; Pasteurella multocida, 60A): 12.5 µg/mL (≈ 18.7 µM); MIC ([29]; Pasteurella multocida, 68C): 12.5 µg/mL (≈ 18.7 µM); MIC ([31]; broth-dilution microtiter, Streptococcus sp. 80, read-out: MIC): 1.56 µg/mL (≈ 2.34 µM); ED50 [32, 34]: > 10 mg/kg; Number of Deaths/Number Treated [33]: 10/10
CCC1CC(C)C(=O)C=CC(C)=CC(COc2cccnc2)C(CC)OC(=O)CC(O)C(C)C1OC1OC(C)C(O)C(N(C)C)C1O (centres unmarked) [Compound 46, 23-O-(3-Pyridyl)-20-deoxy-20-dihydro-OMT] | > 128 | 128 (≈ 194 µM) | > 128 | 4 (≈ 6.05 µM) | 1 (≈ 1.51 µM) | 2 (≈ 3.03 µM) | 4 (≈ 6.05 µM) | 16 (≈ 24.2 µM) | 0.25 (≈ 0.378 µM) | 1 (≈ 1.51 µM) | 1 (≈ 1.51 µM) | 50 (≈ 75.7 µM) | 50 (≈ 75.7 µM) | 25 (≈ 37.8 µM) | 50 (≈ 75.7 µM) | 50 (≈ 75.7 µM) | 25 (≈ 37.8 µM) | 12.5 (≈ 18.9 µM) | 1.56 (≈ 2.36 µM) | > 100 | MIC ([5]; Staphylococcus aureus, V41): 0.5 µg/mL (≈ 0.757 µM); MIC ([8]; Streptococcus pneumoniae): 0.5 µg/mL (≈ 0.757 µM); MIC ([10]; Streptococcus pyogenes, C203): 2 µg/mL (≈ 3.03 µM); MIC ([12]; Haemophilus influenzae): 16 µg/mL (≈ 24.2 µM); MIC ([13]; Staphylococcus aureus, X400): 2 µg/mL (≈ 3.03 µM); MIC [19]: 1.56 µg/mL (≈ 2.36 µM); MIC ([21]; broth-dilution microtiter, Mycoplasma synoviae, read-out: MIC): 6.25 µg/mL (≈ 9.46 µM); MIC ([26]; broth-dilution microtiter, Pasteurella multocida 22A, read-out: MIC): 12.5 µg/mL (≈ 18.9 µM); MIC ([27]; broth-dilution microtiter, Pasteurella multocida 40G, read-out: MIC): 12.5 µg/mL (≈ 18.9 µM); MIC ([28]; broth-dilution microtiter, Pasteurella multocida 60A, Avian isolate, read-out: MIC): 12.5 µg/mL (≈ 18.9 µM); MIC ([29]; broth-dilution microtiter, Pasteurella multocida 68C, read-out: MIC): 6.25 µg/mL (≈ 9.46 µM); MIC ([31]; Streptococcus, SP.80): 3.12 µg/mL (≈ 4.72 µM); ED50 [32, 34]: > 10 mg/kg; Number of Deaths/Number Treated [33]: 10/10
